Test results: publication PMC5372361 (Scientific Reports, 2017)
Read-outs that look alike come from different tables or passages of the source.

Experiments:
[1] = molecular target: T1, porcine liver CaE (Sus scrofa, UniProt Q29550); experiment: In vitro CaE inhibition (4-nitrophenyl acetate hydrolysis); type: biochemical; settings: for inhibition at 20 µM: 20 μM of compound
T1 sequence (Q29550 19-566): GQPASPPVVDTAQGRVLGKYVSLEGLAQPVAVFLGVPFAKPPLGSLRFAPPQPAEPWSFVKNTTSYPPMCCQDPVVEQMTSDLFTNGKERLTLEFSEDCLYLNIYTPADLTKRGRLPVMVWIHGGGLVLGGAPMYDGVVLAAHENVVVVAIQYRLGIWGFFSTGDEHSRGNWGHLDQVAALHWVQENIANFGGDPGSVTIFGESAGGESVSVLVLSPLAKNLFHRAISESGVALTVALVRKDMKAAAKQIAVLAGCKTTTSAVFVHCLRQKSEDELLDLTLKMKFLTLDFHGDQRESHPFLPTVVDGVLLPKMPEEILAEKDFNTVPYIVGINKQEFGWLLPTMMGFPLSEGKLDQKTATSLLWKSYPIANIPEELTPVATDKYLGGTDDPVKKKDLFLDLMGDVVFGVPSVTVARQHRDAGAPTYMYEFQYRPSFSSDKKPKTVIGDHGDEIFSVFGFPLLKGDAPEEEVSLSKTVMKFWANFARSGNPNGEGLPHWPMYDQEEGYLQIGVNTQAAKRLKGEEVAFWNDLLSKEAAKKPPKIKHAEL
Protocol: Acetylcholinesterase (AChE, EC 3.1.1.7, from human erythrocyte), butyrylcholinesterase (BChE, EC 3.1.1.8, from equine serum), carboxylesterase (CaE, EC 3.1.1.1, from porcine liver), acetylthiocholine iodide (ATCh), butylthiocholine iodide (BTCh), 5,5′-dithiobis-(2-nitrobenzoic acid) (DTNB), and 4-nitrophenol acetate (4-NPA), were purchased from Sigma-Aldrich (Germany).
The activity of CaE was determined spectrophotometrically by the release of 4-nitrophenol at 405 nm[76]. The assay solution consisted of 0.1 M K/Na phosphate buffer (pH 8.0, 25 °C) with the addition of 1 mM 4-nitrophenyl acetate and 0.02 unit/mL of CaE. The assays were carried out with a blank containing all components except CaE.
The test compounds were dissolved in DMSO; the incubation mixture contained 2% of the solvent. […] The test compounds were added to the assay solution and pre-incubated at 25 °C with the enzymes for 10 min followed by the addition of the substrate. A parallel control was made for the assay solution with no inhibitor. […] Each experiment was performed in triplicate. The results were expressed as the mean ± SEM. The reaction rates in the presence and absence of inhibitor were compared, and the percentage of residual enzyme activity due to the presence of test compounds was calculated.

[2] = molecular target: T2, ifenprodil binding site of NMDA receptors containing NR2B subunits (Rattus norvegicus, UniProt P35439+Q00960); experiment: Radioligand binding, competition with [3H]ifenprodil; settings: rat hippocampal membranes
T2 construct: we used a membrane preparation of rat cerebral hippocampus; from tissue; host or cells: rat hippocampal membranes
T2 sequence (Q00960 27-1482, other chains not shown): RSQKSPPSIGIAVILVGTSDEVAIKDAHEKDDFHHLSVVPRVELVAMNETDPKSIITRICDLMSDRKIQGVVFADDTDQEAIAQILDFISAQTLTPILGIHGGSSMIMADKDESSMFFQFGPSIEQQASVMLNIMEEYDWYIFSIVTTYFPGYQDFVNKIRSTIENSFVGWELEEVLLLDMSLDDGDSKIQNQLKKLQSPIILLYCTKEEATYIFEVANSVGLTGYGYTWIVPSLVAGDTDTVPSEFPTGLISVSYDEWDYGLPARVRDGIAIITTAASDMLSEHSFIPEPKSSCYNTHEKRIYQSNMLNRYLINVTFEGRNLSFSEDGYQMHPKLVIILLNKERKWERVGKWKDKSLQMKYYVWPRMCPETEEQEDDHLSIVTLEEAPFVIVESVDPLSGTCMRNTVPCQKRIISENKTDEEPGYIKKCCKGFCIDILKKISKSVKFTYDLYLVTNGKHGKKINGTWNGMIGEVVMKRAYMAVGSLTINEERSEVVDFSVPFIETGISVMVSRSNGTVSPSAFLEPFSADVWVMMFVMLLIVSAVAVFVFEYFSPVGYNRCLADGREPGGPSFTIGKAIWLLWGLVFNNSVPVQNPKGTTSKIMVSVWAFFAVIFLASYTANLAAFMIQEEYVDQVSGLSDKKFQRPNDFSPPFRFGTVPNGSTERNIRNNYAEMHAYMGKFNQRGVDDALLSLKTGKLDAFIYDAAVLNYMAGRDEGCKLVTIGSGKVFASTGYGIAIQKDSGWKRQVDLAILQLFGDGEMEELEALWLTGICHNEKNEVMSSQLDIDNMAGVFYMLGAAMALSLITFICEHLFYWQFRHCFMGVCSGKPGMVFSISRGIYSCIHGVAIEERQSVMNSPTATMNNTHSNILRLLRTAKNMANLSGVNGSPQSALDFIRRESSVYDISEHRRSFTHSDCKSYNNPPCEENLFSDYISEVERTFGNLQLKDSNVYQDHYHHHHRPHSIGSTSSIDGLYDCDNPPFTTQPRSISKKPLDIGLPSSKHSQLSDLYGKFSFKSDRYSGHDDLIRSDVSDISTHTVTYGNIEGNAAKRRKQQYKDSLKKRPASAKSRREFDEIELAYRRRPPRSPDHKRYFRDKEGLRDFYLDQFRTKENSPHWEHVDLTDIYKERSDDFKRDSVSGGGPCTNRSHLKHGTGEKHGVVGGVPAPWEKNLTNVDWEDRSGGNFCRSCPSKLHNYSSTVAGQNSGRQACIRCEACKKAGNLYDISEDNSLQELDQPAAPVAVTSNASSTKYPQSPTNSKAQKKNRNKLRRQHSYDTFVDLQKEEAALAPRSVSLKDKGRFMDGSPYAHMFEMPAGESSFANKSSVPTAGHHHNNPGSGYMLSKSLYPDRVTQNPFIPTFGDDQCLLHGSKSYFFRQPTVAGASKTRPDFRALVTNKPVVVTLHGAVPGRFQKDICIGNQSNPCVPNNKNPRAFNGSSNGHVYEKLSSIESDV
Protocol: (§1) Two radioactive ligands were used: [^3H]
(§2) The obtained membrane pellet was resuspended in a work buffer (5 mM HEPES/4.5 mM Tris buffer, pH 7.6) in a ratio of 1:5 and stored in liquid nitrogen. The reaction mixture (the final volume of 0.5 ml) contained 200 μl of the working buffer, 50 μl of 50 nM radioligand solution, and 250 μl of the membrane suspension. Nonspecific binding was determined in the presence of 50 μl of 1 mM of unlabeled ligand.
(§3) For binding study, the reaction mixture was incubated at room temperature for 2 hours. After incubation, the samples were filtered through GF/B glass-fiber filters (Whatman), washed with the work buffer, dried, and transferred to scintillation vials to which 5 ml of scintillation fluid was added containing 4 g of diphenyloxazole (PPO), 0.2 g of diphenyloxazoil benzene (POPOP), and 1 liter of toluene.
(§4) The effect of the test compounds on the binding of [^3H]

[3] = molecular target: T3, tubulin (Sus scrofa, UniProt P02550+P02554); experiment: Tubulin polymerization to microtubules (absorbance at 355 nm); type: biochemical; settings: read-out: (dA355/dt)max, % of control
T3 construct: purchased Cytoskeleton, Inc., Denver, USA
T3 sequence (P02550 whole entry): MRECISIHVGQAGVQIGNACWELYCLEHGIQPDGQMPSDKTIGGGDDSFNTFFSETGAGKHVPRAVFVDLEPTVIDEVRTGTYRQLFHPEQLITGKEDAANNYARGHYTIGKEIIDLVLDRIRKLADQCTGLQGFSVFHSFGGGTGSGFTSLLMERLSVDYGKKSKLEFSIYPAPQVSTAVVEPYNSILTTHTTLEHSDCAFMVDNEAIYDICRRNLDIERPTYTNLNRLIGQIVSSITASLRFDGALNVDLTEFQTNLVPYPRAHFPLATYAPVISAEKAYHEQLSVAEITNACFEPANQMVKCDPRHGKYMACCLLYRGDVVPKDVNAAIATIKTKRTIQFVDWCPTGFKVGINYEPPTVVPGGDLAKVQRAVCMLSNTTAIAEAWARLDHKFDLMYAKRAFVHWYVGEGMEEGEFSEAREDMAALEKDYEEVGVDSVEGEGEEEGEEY
T3 sequence (P02554 whole entry): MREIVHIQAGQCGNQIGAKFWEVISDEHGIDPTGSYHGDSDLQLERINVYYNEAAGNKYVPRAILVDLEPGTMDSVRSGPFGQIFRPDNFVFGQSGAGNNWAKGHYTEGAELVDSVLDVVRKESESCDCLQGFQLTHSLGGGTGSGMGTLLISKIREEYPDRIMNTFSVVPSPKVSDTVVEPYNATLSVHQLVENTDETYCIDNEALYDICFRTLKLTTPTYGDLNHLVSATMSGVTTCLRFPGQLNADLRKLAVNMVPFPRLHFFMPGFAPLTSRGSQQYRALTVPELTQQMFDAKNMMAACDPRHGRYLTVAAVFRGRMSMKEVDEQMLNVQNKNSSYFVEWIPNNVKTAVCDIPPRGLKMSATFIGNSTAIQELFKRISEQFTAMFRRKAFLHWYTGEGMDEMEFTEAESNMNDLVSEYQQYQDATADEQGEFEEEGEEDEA
Protocol: The primary screening for the effect on tubulin polymerization in vitro was performed using a commercial tubulin in the presence of 0.1 mM of the carbazole–aminoadamantane conjugates. In blank probes, tubulin (40 μM) polymerization in the presence of 10% DMSO (as in the case of test probes) leads to absorbance increase after a rather long (80–120 minutes) lag period. […] The results are summarized in Table 3 as the maximum rate of absorbance increase for a tubulin- microtubules suspension normalized to the blank value.
The assembly of tubulin into microtubules was carried out using pure tubulin from HTS- Tubulin polymerization assay kit (Cytoskeleton, Inc., Denver, USA). […] The standard polymerization reaction contained 100 μl of a 4 mg/ml tubulin solution in 80 mM PIPES (pH 6.9), 0.5 mM EGTA, 2 mM MgCl2, and 1 mM GTP. […] The parameter Vmax = (dA355/dt)^max normalized to control probes (%) was used to compare the action of the compounds. Electron microscopic monitoring was carried out on Carl Zeiss Libra 120 Electron Microscope (Carl Zeiss Meditec AG, Jena, Germany) at 120 kV using negative countstaining.

[4] = molecular target: T4, equine serum BChE (Equus caballus, UniProt P81908); experiment: biochemical; settings: for inhibition at 20 µM: read-out: inhibition % at 20 μM, BChE
T4 construct: We used human erythrocyte AChE, equine serum BChE, and porcine liver CaE; purchased Sigma-Aldrich (Germany); host or cells: equine serum
T4 sequence (P81908 whole entry): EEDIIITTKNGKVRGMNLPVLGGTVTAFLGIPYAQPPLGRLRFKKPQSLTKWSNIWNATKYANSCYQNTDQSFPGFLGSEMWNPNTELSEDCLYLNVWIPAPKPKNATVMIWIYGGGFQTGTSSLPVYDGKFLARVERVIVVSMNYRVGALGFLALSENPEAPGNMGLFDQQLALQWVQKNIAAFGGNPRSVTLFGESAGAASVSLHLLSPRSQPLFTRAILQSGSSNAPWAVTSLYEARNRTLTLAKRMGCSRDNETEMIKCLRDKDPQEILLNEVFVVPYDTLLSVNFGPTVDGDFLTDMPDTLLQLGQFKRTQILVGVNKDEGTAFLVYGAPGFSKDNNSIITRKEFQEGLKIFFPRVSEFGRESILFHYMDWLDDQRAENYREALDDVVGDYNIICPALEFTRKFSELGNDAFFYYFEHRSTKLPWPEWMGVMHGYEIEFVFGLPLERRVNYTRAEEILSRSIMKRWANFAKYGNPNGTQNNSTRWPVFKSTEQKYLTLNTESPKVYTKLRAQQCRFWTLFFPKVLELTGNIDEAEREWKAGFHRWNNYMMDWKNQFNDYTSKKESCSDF
Protocol: (§5) The AChE and BChE activities were measured by the method of Ellman and co-workers as described earlier[75]. The assay solution consisted of 0.1 M K/Na phosphate buffer (pH 7.5, 25 °C) with the addition of 0.33 mM DTNB, 0.02 unit/mL of AChE or BChE, and 1 mM of substrate (ATCh or BTCh, respectively). The assays were carried out with a blank containing all components except ATCh and BTCh in order to take account of a non-enzymatic reaction.
(§6) The test compounds were dissolved in DMSO; the incubation mixture contained 2% of the solvent. […] The test compounds were added to the assay solution and pre-incubated at 25 °C with the enzymes for 10 min followed by the addition of the substrate. A parallel control was made for the assay solution with no inhibitor. Measurements were performed in a FLUOStar OPTIMA multifunctional reader (BMG Labtech, Germany). Each experiment was performed in triplicate. The results were expressed as the mean ± SEM. The reaction rates in the presence and absence of inhibitor were compared, and the percentage of residual enzyme activity due to the presence of test compounds was calculated.

[5] = molecular target: T5, MK-801 binding (intrachannel) site of NMDA receptor (Rattus norvegicus, UniProt P35439); experiment: Radioligand binding, competition with [3H]MK-801; settings: rat hippocampal membranes
T5 construct: we used a membrane preparation of rat cerebral hippocampus; from tissue; host or cells: rat hippocampal membranes
Protocol: as §1, §2, §3, §4

[6] = molecular target: T6, human erythrocyte AChE (Homo sapiens, UniProt P22303); experiment: biochemical; settings: for inhibition at 20 µM: read-out: inhibition % at 20 μM, AChE
T6 construct: We used human erythrocyte AChE, equine serum BChE, and porcine liver CaE; purchased Sigma-Aldrich (Germany); host or cells: human erythrocyte
T6 sequence (P22303 32-617 isoform P22303-2 limits assumed): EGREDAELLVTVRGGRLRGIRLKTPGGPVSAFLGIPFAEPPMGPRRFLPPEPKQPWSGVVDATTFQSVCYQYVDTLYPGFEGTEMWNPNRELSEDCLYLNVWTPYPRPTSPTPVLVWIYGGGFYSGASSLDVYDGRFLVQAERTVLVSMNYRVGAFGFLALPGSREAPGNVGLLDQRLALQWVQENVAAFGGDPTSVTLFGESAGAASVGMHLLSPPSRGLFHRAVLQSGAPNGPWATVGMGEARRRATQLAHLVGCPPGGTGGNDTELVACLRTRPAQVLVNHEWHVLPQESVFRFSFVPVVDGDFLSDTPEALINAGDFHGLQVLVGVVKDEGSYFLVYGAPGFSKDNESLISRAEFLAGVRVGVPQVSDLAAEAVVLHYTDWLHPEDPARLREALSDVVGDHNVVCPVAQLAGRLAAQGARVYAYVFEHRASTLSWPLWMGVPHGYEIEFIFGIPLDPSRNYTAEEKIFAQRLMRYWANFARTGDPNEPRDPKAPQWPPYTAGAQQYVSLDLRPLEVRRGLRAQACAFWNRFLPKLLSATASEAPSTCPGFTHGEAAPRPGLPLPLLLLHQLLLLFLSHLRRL
Protocol: as §5, §6

[7] = system: SH-SY5Y neuroblastoma cells; experiment: Ionomycin-induced toxicity in SH-SY5Y neuroblastoma cells (MTT test); type: cell-based, human; settings: 3 μM ionomycin, 24 hours
Protocol: The human neuroblastoma cell line SH-SY5Y was used for all experiments. The cells were cultured in a humidified, 5% (v/v) CO2-controlled environment at 37 °C, and grown in MEM/F12 culture medium supplemented with 15% fetal bovine serum (FBS), 100 U/mL penicillin, and […][90].
The cell viability was evaluated as the dehydrogenase activity with the 3-(4,5-dimethylthiazol-2-yl)-2,5-diphenyltetrazolium bromide (MTT) assay. Briefly, the SH-SY5Y cells were incubated with 0.1 and 1 μM of a test compound or an equal volume of the vehicle (<1% of the whole volume of the medium under the layer of cells) and 3 μM ionomycine for 24 h. The absorbance was measured at 570 nm using a Victor microplate reader (Perkin Elmer).

[8] = equine serum BChE, pH 7.5, 25 °C, 10 min pre-incubation, read-out: IC50 ± SEM, BChE

Row | SMILES | inhibition at 20 µM [1] | % of [3H]ifenprodil blockade at 100 μM of compound [2] | IC50 [4, 8] | % of [3H]МК-801 blockade at 100 μM of compound [5] | inhibition at 20 µM [6] | maximum polymerization rate, % of control at 100 µM [3] | inhibition at 20 µM [4] | also measured
1 | NC12CC3CC(CC(C3)C1)C2 [Amantadine] | 3.2% | 44.6 ± 4.6% | > 20 µM | 57.2 ± 5.5% |  |  |  | remaining activity at 100 µM ([3]; at 100 μM of compound, 100% = vehicle control (10% DMSO)): 98 ± 16%; inhibition at 20 µM ([4]; 20 μM of compound): 6.9%
2 | CC(=O)O[C@H]1C(=O)[C@@]2(C)[C@H]([C@H](OC(=O)c3ccccc3)[C@]3(O)C[C@H](OC(=O)[C@H](O)[C@@H](NC(=O)c4ccccc4)c4ccccc4)C(C)=C1C3(C)C)[C@]1(OC(C)=O)CO[C@@H]1C[C@@H]2O [Paclitaxel] |  |  |  |  |  |  |  | remaining activity at 5 µM ([3]; 5 μM, 100% = vehicle control (10% DMSO)): 487 ± 32%
3 | c1ccc2c(c1)[nH]c1ccccc12 [Carbazole] | 9.4% |  |  |  | 1.8% | 123 ± 12% | 16.1% | IC50 [6]: > 20 µM; IC50 [4]: > 20 µM
4 | C[C@H](CCC(=O)O)C[C@H](C)C[C@H](C)C(=O)/C=C(\O)[C@H](C)C[C@H](C)C/C=C/[C@@H](C)[C@@H](O)[C@@H](C)[C@@H](O)C[C@@H]1CC[C@@](C)([C@H]2CC[C@@](C)([C@@H](C)O)O2)O1 [ionomycin] |  |  |  |  |  |  |  | reduction of neuroblastoma cell survival [7]: 36 ± 4%
5 | CC12CC3CC(C)(C1)CC(N)(C3)C2.Cl [Memantine, 1-amino-3,5-dimethyladamantane hydrochloride] | 3% | 11.2 ± 1.1% | > 20 µM | 100% | 1.3% | 89 ± 7% | 13.7% | IC50 ([6]; read-out: IC50 ± SEM, AChE): > 20 µM
6 | O=[N+]([O-])c1ccc(OP(=O)(O)Oc2ccc([N+](=O)[O-])cc2)cc1 [BNPP, Bis-4-nitrophenyl phosphate] |  |  |  |  |  |  |  | IC50 ([1]; porcine liver CaE, pH 8.0, 25 °C, read-out: IC50 ± SEM, CaE): 1.8 ± 0.11 µM
